How the values were obtained:
[1] = β-carotene alone; cited from earlier work
[2] = Solubility enhancement of β-carotene in water solutions of the compounds (HPLC); details: 5 mg/mL compound in water, excess β-carotene
Experimental: The suspensions were left under stirring for 24 hours. Solutions A to N were obtained.
The suspensions were left under stirring for 24 hours. Solutions O to R were obtained.
An excess amount of β-carotene (5 mg/mL) was added to 1 mL of each solution A to R. The suspension was mixed using a laboratory shaker at room temperature for 24 hours. The concentration (mg/mL) of solubilized β-carotene was determined by HPLC analysis. The sample was prepared for chromatographic analysis by filtering through a 0.45 μm MCE filter.
An X-Bridge™ Shield RP18 column (4.6×150 mm) was used. A suitable HPLC analytical method was developed for quantitating the amount of drug in solution.
An appropriate dilution of each sample was made with dimethylsulfoxide, such that β-carotene final concentration was within the linear portion of the standard curve, prior to injection onto the HPLC column.
The amount of β-carotene in mg/mL was calculated by introducing the analyte peak area in the calibration curve fit-equation and multiplying the result by the dilution factor.

[3] = Solubility enhancement of astaxanthin in water solutions of the compounds (HPLC); details: water solution containing 5 mg/mL of compound, excess astaxanthin (1 mg/mL), room temperature, 24 hours, 0.45 μm filter
Experimental: The suspension was mixed using a laboratory shaker at room temperature for 24 hours. The concentration (mg/mL) of solubilized astaxanthin was determined by HPLC analysis. The sample was prepared for chromatographic analysis by filtering through a 0.45 μm MCE filter.
An X-Bridge™ Shield RP18 column (4.6×150 mm) was used. A suitable HPLC analytical method was developed for quantitating the amount of astaxanthin in solution.
The absorbance was monitored at 489 nm and the injection volume was 6 μL. In these chromatographic conditions, astaxanthin was eluted in about 4.0 minutes.
An appropriate dilution of each sample was made with dimethylsulfoxide, such that astaxanthin final concentration was within the linear portion of the standard curve, prior to injection onto the HPLC column.
The amount of astaxanthin in mg/mL was calculated by introducing the analyte peak area in the calibration curve fit-equation and multiplying the result by the dilution factor.

Row | Visual aspect of the solution with β-carotene [2] | Aqueous solubility of astaxanthin in the presence of the compound [3] | Compound | Water solubility [1]
1 |  |  | CC1=C(/C=C/C(C)=C/C=C/C(C)=C/C=C/C=C(C)/C=C/C=C(C)/C=C/C2=C(C)CCCC2(C)C)C(C)(C)CCC1 [β-carotene] | below 1 mg/L
2 | pale pink color | 0.7 µg/mL | HP-β-cyclodextrin (CAVASOL W7 HP) [Compound 16] | 
3 |  | 0.5 µg/mL | OC[C@H]1O[C@@H]2O[C@H]3[C@H](O)[C@@H](O)[C@@H](O[C@H]4[C@H](O)[C@@H](O)[C@@H](O[C@H]5[C@H](O)[C@@H](O)[C@@H](O[C@H]6[C@H](O)[C@@H](O)[C@@H](O[C@H]7[C@H](O)[C@@H](O)[C@@H](O[C@H]8[C@H](O)[C@@H](O)[C@@H](O[C@H]1[C@H](O)[C@H]2O)O[C@@H]8CO)O[C@@H]7CO)O[C@@H]6CO)O[C@@H]5CO)O[C@@H]4CO)O[C@@H]3CO [Compound 15, β-cyclodextrin (CAVAMAX W7)] | 
4 |  | 1.2 µg/mL | OC[C@H]1O[C@@H]2O[C@H]3[C@H](O)[C@@H](O)[C@@H](O[C@H]4[C@H](O)[C@@H](O)[C@@H](O[C@H]5[C@H](O)[C@@H](O)[C@@H](O[C@H]6[C@H](O)[C@@H](O)[C@@H](O[C@H]7[C@H](O)[C@@H](O)[C@@H](O[C@H]8[C@H](O)[C@@H](O)[C@@H](O[C@H]9[C@H](O)[C@@H](O)[C@@H](O[C@H]1[C@H](O)[C@H]2O)O[C@@H]9CO)O[C@@H]8CO)O[C@@H]7CO)O[C@@H]6CO)O[C@@H]5CO)O[C@@H]4CO)O[C@@H]3CO [Compound 14, γ-cyclodextrin (CAVAMAX W8)] | 

From patent publication US10662259B2, “Glycogen-based water solubility enhancers” (AZIENDE CHIMICHE RIUNITE ANGELINI FRANCESCO A.C.R.A.F. …, priority 2013, dated 2020)
